Experimental findings from ChEMBL document CHEMBL1201862, “PubChem BioAssay data set” (2004) are described below.

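96-well plates; 48 h exposure; 5 concentrations. Endpoints by linear interpolation between flanking doses. Not reached: highest tested concentration assigned. Abbreviation: GI50, concentration required for 50% inhibition of growth.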 The source made the active and inactive calls. No stated cut-off is given here; in the data, active = GI50 up to about 1.1 µM and inactive = higher.

Among the test systems are A498; ACHN; CCRF-CEM; DU-145; HCT-116; HT-29; LOX IMVI; MDA-N; MOLT-4; NCI-H460; NCI/ADR-RES; OVCAR-3; OVCAR-5; RXF 393; SF-268; SNB-19; SNB-75; UACC-62; UO-31; BT-549.
Holding throughout (assay): NCI-60 cell line screen, 48 h

Consider `O=C1OCC(CN2CCC(n3c(=O)[nH]c4ccccc43)CC2)=C1c1ccccc1`, for which the GI50 in the test on A498 is 23.5 µM (inactive); in the test with ACHN it was 29.4 µM (inactive); in the test on CCRF-CEM, 13.7 µM (inactive); in the test on DU-145, 24.8 µM (inactive); in the test with HCT-116, 25.5 µM (inactive); in the test with HT-29, 19.7 µM (inactive). The GI50 in the test on LOX IMVI was 21.4 µM (inactive); with MDA-N, 26.2 µM (inactive); in the test on MOLT-4 it was 22 µM (inactive); with NCI-H460, 6.78 µM (inactive); in the test on NCI/ADR-RES it was 22.5 µM (inactive); in the test on OVCAR-3, 24.7 µM (inactive). In addition, the GI50 is 41 µM (inactive) in the test with OVCAR-5; 34.8 µM (inactive) in the test on RXF 393; 28.1 µM (inactive) with SF-268; 26.1 µM (inactive) in the test with SNB-19; 28.2 µM (inactive) with SNB-75; 12.6 µM (inactive) in the test on UACC-62. In the test with UO-31, the GI50 was 11.5 µM (inactive).
In the case of `COc1ccc2c(c1)CCN=C2c1ccccc1CCCCl`, the GI50 is 49.1 µM (inactive) with A498; 24.3 µM (inactive) with ACHN; 38.5 µM (inactive) with BT-549; 41.4 µM (inactive) with CCRF-CEM; 36.5 µM (inactive) with DU-145; 18.2 µM (inactive) in the test with HCT-116. For the same molecule, the GI50 in the test with HT-29 was 13.6 µM (inactive); in the test with MOLT-4, 13 µM (inactive); in the test with NCI-H460, 13.6 µM (inactive); with NCI/ADR-RES it was 26.4 µM (inactive); in the test on OVCAR-3 it was 46.1 µM (inactive); with OVCAR-5, 46.8 µM (inactive). Besides, the GI50 is 22.6 µM (inactive) with RXF 393; 22.2 µM (inactive) in the test with SF-268; 7.67 µM (inactive) with SNB-19; 17.3 µM (inactive) in the test on SNB-75; 36.1 µM (inactive) in the test with UACC-62; 10 µM (inactive) in the test on UO-31.
With `C=CCOC(OCC=C)/C(Br)=C/C`, the GI50 in the test with A498 is > 100 µM (inactive); in the test with ACHN it was 17.6 µM (inactive); with CCRF-CEM, 10.3 µM (inactive); in the test on DU-145, 55.2 µM (inactive); in the test with HCT-116 it was 13.5 µM (inactive); with HT-29, 20.2 µM (inactive). In addition, the GI50 in the test with LOX IMVI is 16.5 µM (inactive); in the test on MDA-N, 37 µM (inactive); in the test with NCI-H460, 67.3 µM (inactive); in the test with NCI/ADR-RES it was 31 µM (inactive); in the test with OVCAR-3, 47.1 µM (inactive); in the test with OVCAR-5 it was 49.5 µM (inactive). Also, the GI50 in the test with RXF 393 is 29.2 µM (inactive); in the test with SF-268 it was 28.8 µM (inactive); in the test on SNB-19, > 100 µM (inactive); with SNB-75 it was > 100 µM (inactive); in the test on UACC-62 it was 64.4 µM (inactive); in the test on UO-31, 34.9 µM (inactive).
Turning to `COc1ccc(C2=C(Cl)C(=O)N(c3ccc(OC)cc3OC)C(=O)C2(Cl)Cl)cc1`, the GI50 in the test with ACHN was 15.7 µM (inactive); in the test with BT-549, 18.8 µM (inactive); in the test on DU-145, 17.3 µM (inactive); with HCT-116, 15.5 µM (inactive); in the test with HT-29, 18.1 µM (inactive); with LOX IMVI it was 14.7 µM (inactive). Further, the GI50 in the test with MOLT-4 is 5.07 µM (inactive); in the test on NCI-H460 it was 45.2 µM (inactive); with NCI/ADR-RES, 14.5 µM (inactive); in the test with OVCAR-3, 12.5 µM (inactive); with OVCAR-5, 14.4 µM (inactive); in the test with RXF 393, 17.9 µM (inactive). Further, the GI50 was 18.1 µM (inactive) with SF-268; 56.6 µM (inactive) in the test on SNB-19; 22.9 µM (inactive) with SNB-75; 14.5 µM (inactive) with UACC-62; 14.8 µM (inactive) in the test with UO-31.
`O=c1c(F)cn2c(=O)n1CCCCCCCn1c(=O)c(F)cn(c1=O)CCCCCCC2`: the GI50 in the test with A498 was 32 µM (inactive); with ACHN, > 100 µM (inactive); in the test on CCRF-CEM, 76 µM (inactive); with DU-145 it was 1.59 µM (inactive); with HCT-116, 73.5 µM (inactive); in the test on HT-29, 50.4 µM (inactive). Besides, the GI50 in the test on LOX IMVI is > 100 µM (inactive); in the test with MDA-N it was > 100 µM (inactive); in the test on MOLT-4 it was > 100 µM (inactive); with NCI-H460, > 100 µM (inactive); in the test on NCI/ADR-RES, 69 µM (inactive); with OVCAR-3, 61.7 µM (inactive). In addition, the GI50 with OVCAR-5 was > 100 µM (inactive); with RXF 393 it was 39.1 µM (inactive); in the test on SF-268 it was 0.59 µM (active); in the test on SNB-19 it was > 100 µM (inactive); with SNB-75 it was 0.105 µM (active); in the test on UACC-62 it was 60.5 µM (inactive). In addition, the GI50 in the test on UO-31 is > 100 µM (inactive).
Take `COc1ccc2c(=O)c3c([nH]c2c1)OCC3=O`: the GI50 in the test on A498, in the test with ACHN, with BT-549, with CCRF-CEM, in the test with DU-145 and in the test on HCT-116 was > 100 µM (inactive) in each case. The GI50 with HT-29, in the test on LOX IMVI, in the test on MOLT-4, with NCI-H460, with NCI/ADR-RES and in the test on RXF 393 was > 100 µM (inactive) each time. The GI50 in the test with SF-268, with SNB-19, in the test on SNB-75, with UACC-62 and with UO-31 was > 100 µM (inactive) in each case.
As to `CCOC(=O)[C@@H]1ON2O[C@H](OC3CCCC3(c3ccccc3)c3ccccc3)C[C@H]3OC(=O)[C@@H]1C32` (some centres not stated), the GI50 in the test on A498 is 35.2 µM (inactive); in the test on ACHN it was 65.5 µM (inactive); in the test with CCRF-CEM, 26.3 µM (inactive); in the test on DU-145 it was 25.5 µM (inactive); with HCT-116, 73.3 µM (inactive); in the test on HT-29 it was 23.3 µM (inactive). The GI50 with LOX IMVI is 27.2 µM (inactive); with MDA-N, 43.3 µM (inactive); in the test on MOLT-4 it was 45 µM (inactive); with NCI-H460 it was 34 µM (inactive); in the test with NCI/ADR-RES, 31.8 µM (inactive); in the test with OVCAR-3, 40.9 µM (inactive). For the same molecule, the GI50 is > 100 µM (inactive) in the test with OVCAR-5; 11.1 µM (inactive) in the test with RXF 393; 95.9 µM (inactive) with SF-268; 71.4 µM (inactive) in the test on SNB-75; 27 µM (inactive) in the test on UACC-62; 37.6 µM (inactive) in the test with UO-31.
On to `Cc1ccc(OC2CC(n3cnc4c(=O)[nH]c(Br)nc43)OC2Oc2ccc(C)cc2)cc1` (configuration not stated), for which the GI50 in the test on A498 is > 100 µM (inactive); with ACHN, 19.8 µM (inactive); in the test on BT-549, 26.9 µM (inactive); with CCRF-CEM, 23.1 µM (inactive); in the test on DU-145, 24.7 µM (inactive); with HCT-116 it was 29.2 µM (inactive). For the same molecule, the GI50 with HT-29 was 28.6 µM (inactive); in the test on LOX IMVI it was 26.2 µM (inactive); in the test with MOLT-4, 23.9 µM (inactive); in the test on NCI-H460 it was 20.6 µM (inactive); in the test with NCI/ADR-RES, 28.7 µM (inactive); with OVCAR-3, 18.5 µM (inactive). The GI50 in the test with OVCAR-5 is 21.4 µM (inactive); with RXF 393, 22.5 µM (inactive); in the test on SF-268, 22.6 µM (inactive); in the test with SNB-19, 21.5 µM (inactive); in the test with UACC-62 it was 23.7 µM (inactive); in the test with UO-31 it was 19.1 µM (inactive).
With `C/C(=N\Nc1nc2cc(F)ccc2s1)c1ccccn1`, the GI50 is 12.1 µM (inactive) in the test on A498; < 0.01 µM (active) in the test with ACHN; 1.19 µM (inactive) with BT-549; < 0.01 µM (active) in the test with CCRF-CEM; 0.344 µM (active) in the test with DU-145; < 0.0161 µM (active) in the test with HCT-116. In addition, the GI50 with HT-29 is < 0.01 µM (active); in the test on MOLT-4 it was 0.0102 µM (active); in the test on NCI-H460, 0.0412 µM (active); with NCI/ADR-RES, 0.0274 µM (active); with OVCAR-3, 0.0284 µM (active); with OVCAR-5, 0.716 µM (active). In addition, the GI50 in the test on RXF 393 is 1.26 µM (inactive); with SF-268 it was 0.0301 µM (active); in the test on SNB-19, 0.391 µM (active); in the test on SNB-75 it was 0.661 µM (active); with UACC-62 it was 0.123 µM (active); in the test with UO-31 it was 0.0192 µM (active).
As for `Clc1ccc(Cl)c(/N=N/c2cc3c4c(c2)CCCN4CCC3)c1`, the GI50 with A498, with ACHN, in the test with CCRF-CEM, with DU-145, with HCT-116 and in the test on HT-29 was > 10 µM (inactive) throughout. Also, the GI50 with LOX IMVI, with MDA-N, in the test on MOLT-4, in the test on NCI-H460, in the test on NCI/ADR-RES and in the test with OVCAR-3 was > 10 µM (inactive) each time. Besides, the GI50 in the test with RXF 393, with SF-268, in the test on SNB-19, in the test with SNB-75, in the test on UACC-62 and with UO-31 was > 10 µM (inactive) each time.
Regarding `O=C(/C=C/c1ccc(O)c(O)c1)OCc1ccccc1` [BENZYL CAFFEATE], the GI50 is 20.5 µM (inactive) in the test on A498; 11.8 µM (inactive) with ACHN; 15.1 µM (inactive) with DU-145; 13.4 µM (inactive) in the test with HCT-116; 32.3 µM (inactive) with HT-29; 15.5 µM (inactive) in the test on LOX IMVI. Besides, the GI50 in the test with MDA-N is 4.4 µM (inactive); in the test on MOLT-4, 2.28 µM (inactive); in the test with NCI-H460, 12.8 µM (inactive); in the test on NCI/ADR-RES, 15.8 µM (inactive); with OVCAR-3 it was 11 µM (inactive); with OVCAR-5 it was 29.5 µM (inactive). Moreover, the GI50 with RXF 393 is 16.8 µM (inactive); in the test with SF-268, 10.9 µM (inactive); in the test with SNB-19, 27.6 µM (inactive); in the test on UACC-62, 6.58 µM (inactive); in the test on UO-31, 13.7 µM (inactive).
